Test results published in ChEMBL document CHEMBL1201862, “PubChem BioAssay data set” (2004).
Calls of active or inactive are those of the source.

Experiments:
[1] = target: T1, RNA-binding protein pos-1 (Caenorhabditis elegans, UniProt G5EF15); experiment: disruptors of C. elegans POS-1 RNA interaction – biochemical, fluorescence polarization, dose response (AID 1964);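 further: purified POS-1 fused to maltose binding protein made in E. coli; potency of compounds blocking POS-1 binding to fluorescent RNA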
T1 sequence (G5EF15 whole entry): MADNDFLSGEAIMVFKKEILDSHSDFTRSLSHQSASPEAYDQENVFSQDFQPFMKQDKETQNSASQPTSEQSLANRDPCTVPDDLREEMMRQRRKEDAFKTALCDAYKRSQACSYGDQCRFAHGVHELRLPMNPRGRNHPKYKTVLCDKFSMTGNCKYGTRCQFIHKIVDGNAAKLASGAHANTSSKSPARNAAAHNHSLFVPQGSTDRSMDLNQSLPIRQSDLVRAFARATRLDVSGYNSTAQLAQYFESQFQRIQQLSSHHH

[2] = target: T2, Zinc finger protein mex-5 (Caenorhabditis elegans, UniProt Q9XUB2); experiment: potency of MEX-5 RNA-binding blockers – biochemical, C. elegans, fluorescence polarization, dose response (AID 1960)
T2 sequence (Q9XUB2 whole entry): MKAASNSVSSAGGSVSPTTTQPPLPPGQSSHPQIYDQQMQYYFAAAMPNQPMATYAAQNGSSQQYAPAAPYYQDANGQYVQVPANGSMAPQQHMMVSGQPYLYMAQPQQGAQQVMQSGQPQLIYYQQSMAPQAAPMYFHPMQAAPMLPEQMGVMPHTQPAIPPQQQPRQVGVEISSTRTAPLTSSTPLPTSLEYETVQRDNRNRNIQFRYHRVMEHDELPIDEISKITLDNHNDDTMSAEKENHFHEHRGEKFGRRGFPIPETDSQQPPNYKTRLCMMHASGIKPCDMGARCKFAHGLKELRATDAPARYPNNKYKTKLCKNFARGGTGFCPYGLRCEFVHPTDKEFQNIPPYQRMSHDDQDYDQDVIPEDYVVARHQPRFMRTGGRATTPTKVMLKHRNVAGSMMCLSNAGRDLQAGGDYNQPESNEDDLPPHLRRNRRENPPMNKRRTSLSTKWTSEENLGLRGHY

[3] = fluconazole-exposed Candida albicans growth modulators – fluorescence, retest, confirmation (AID 2467); type: functional, cell-based
[4] = NIH-3T3 fibroblast cytotoxicity, dose response, cytotoxicity control, cell-based, fluorescence, Alamar Blue, secondary assay (AID 2327); type: functional;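 further: NIH-3T3 mouse fibroblasts cultured with fluconazole at 8 µg/mL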
[5] = test system: INS1; experiment: INS-1E survival protection against cytokine death – cell-based, luminescence, retest, dose response (AID 449756); type: functional; details: Rattus norvegicus;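 further: cell death triggered by IL-1 beta plus TNF-alpha plus IFN-gamma mixture; protective hits raise ATP signal compared with cytokine alone wells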
[6] = target: T3, Protein RecA (Mycobacterium tuberculosis, UniProt P9WHJ3); experiment: Fluorescence Cell-Free Homogeneous Dose Retest to Identify Inhibitors of RecA-Intein Splicing Activity. [Related pubchem assays (depositor defined):AID2097, AID2223, AID489010, AID492950]; type: functional
T3 sequence (P9WHJ3 whole entry): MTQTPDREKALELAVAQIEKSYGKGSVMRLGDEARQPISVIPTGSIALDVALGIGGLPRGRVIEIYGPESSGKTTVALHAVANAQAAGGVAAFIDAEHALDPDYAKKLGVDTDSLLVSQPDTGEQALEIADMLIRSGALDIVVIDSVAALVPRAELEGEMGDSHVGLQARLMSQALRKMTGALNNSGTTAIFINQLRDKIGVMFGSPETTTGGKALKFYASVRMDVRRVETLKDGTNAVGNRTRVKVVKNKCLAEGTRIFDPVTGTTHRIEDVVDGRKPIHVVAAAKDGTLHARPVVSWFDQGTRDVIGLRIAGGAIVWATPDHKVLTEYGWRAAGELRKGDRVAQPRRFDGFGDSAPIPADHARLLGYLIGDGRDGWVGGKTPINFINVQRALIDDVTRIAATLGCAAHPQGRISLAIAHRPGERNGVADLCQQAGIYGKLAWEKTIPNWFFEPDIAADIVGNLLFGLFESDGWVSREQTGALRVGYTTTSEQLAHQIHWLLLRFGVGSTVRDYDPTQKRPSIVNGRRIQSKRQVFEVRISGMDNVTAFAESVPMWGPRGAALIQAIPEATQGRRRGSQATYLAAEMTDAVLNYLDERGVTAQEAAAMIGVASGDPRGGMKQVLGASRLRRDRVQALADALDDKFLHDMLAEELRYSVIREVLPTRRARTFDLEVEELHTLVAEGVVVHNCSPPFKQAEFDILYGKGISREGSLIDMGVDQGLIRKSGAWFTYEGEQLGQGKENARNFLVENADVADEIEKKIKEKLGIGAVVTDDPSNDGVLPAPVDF

[7] = target: T4, Replicative DNA helicase DnaB (Mycobacterium tuberculosis, UniProt P9WMR3); experiment: DnaB intein splicing inhibitors, dose response, biochemical, cell-free fluorescence (AID 449749); type: functional
T4 sequence (P9WMR3 whole entry): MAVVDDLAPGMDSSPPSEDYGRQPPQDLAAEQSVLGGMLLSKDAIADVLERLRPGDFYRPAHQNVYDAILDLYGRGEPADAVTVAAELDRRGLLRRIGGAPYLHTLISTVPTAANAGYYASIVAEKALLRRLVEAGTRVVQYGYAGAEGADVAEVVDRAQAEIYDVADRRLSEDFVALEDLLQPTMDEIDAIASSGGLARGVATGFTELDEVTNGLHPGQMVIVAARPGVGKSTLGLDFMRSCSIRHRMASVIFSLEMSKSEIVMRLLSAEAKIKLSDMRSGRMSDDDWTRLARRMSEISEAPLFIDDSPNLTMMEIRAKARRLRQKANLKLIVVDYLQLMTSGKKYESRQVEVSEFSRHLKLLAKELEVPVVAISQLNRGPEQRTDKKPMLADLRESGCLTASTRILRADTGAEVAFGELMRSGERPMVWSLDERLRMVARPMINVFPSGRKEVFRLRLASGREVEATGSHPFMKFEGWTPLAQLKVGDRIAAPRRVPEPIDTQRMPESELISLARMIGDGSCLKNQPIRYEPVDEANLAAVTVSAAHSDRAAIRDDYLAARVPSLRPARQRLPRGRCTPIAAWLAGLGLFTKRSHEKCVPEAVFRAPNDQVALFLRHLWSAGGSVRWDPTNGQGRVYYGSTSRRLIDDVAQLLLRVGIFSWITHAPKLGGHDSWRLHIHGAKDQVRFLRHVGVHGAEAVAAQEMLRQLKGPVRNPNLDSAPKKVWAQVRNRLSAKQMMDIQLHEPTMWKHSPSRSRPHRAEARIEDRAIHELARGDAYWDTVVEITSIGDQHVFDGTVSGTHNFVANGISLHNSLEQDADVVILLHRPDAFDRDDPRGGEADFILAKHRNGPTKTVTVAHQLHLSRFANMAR

[8] = target: Cytochrome P450 2D6 (Homo sapiens, UniProt P10635);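 further: CYP2D6 member of a cytochrome P450 panel assay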
[9] = target: Cytochrome P450 2C19 (Homo sapiens, UniProt P33261); experiment: Cytochrome panel assay with activity outcomes. Panel member name: p450-cyp2c19 Compounds with AC50 equal or less than 10 uM are considered active; type: functional; details: read-out: AC50
[10] = target: Genome polyprotein (dengue virus type 2, UniProt P29990); experiment: flavivirus cap methylation enzyme inhibition – biochemical, confirmation dose response, primary screen (AID 588689); type: functional
[11] = target: Cytochrome P450 3A4 (Homo sapiens, UniProt P08684);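 further: CYP3A4 tested as one member of a cytochrome P450 panel screen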
[12] = viability of uninfected HEp-2 cells – cell-based, HTS, cytotoxicity control for RSV inhibitor project, dose response (AID 2410); type: functional; details: human respiratory syncytial virus
[13] = target: Cytochrome P450 2C9 (Homo sapiens, UniProt P11712)
[14] = target: FAD-linked sulfhydryl oxidase ALR (Homo sapiens, UniProt P55789); experiment: ALR-catalysed DTT oxidation blockers – biochemical, H2O2 detection, luminescence, cherry-pick, dose response (AID 493248)
FAD-linked sulfhydryl oxidase ALR, sequence (P55789 whole entry): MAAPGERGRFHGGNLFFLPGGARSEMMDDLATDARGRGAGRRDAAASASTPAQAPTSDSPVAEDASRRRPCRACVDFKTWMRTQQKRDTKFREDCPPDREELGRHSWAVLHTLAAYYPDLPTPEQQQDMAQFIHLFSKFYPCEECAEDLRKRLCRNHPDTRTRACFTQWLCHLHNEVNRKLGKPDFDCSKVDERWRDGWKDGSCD

Genome polyprotein, sequence (P29990 2492-3391 limits assumed): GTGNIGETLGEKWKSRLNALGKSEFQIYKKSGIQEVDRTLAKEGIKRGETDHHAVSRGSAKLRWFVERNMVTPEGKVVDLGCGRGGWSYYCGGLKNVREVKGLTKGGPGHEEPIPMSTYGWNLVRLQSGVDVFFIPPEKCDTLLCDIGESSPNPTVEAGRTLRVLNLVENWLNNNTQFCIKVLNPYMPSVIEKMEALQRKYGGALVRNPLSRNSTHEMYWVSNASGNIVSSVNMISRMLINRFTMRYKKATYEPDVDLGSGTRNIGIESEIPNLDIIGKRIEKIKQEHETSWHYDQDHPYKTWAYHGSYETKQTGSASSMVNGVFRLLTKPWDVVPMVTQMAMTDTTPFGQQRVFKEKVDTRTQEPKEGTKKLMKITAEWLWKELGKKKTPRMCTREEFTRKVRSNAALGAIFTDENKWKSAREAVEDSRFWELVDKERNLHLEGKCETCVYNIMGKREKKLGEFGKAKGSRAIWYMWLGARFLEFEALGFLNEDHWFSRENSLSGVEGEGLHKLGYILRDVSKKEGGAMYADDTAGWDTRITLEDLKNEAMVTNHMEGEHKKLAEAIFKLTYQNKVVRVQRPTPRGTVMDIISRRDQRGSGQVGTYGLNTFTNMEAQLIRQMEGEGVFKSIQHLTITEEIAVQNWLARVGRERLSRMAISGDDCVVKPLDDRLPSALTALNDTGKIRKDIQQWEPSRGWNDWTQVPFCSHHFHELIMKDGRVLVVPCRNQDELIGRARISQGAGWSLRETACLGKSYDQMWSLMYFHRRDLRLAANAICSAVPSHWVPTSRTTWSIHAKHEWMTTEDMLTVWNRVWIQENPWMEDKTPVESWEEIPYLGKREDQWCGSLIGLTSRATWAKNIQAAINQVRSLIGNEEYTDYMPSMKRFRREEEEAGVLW
Cytochrome P450 2D6, sequence (P10635 whole entry): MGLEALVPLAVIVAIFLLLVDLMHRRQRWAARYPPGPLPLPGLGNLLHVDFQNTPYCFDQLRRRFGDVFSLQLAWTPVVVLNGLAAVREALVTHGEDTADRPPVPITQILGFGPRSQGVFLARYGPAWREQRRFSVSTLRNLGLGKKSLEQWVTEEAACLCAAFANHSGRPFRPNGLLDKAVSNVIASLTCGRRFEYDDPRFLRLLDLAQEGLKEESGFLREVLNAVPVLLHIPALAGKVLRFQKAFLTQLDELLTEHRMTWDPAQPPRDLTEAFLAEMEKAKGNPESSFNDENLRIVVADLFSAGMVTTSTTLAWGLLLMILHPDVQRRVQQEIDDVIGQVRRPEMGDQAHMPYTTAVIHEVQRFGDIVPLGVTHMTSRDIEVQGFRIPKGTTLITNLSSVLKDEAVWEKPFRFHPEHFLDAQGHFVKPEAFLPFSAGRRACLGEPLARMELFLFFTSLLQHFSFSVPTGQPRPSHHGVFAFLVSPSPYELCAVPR
Cytochrome P450 3A4, sequence (P08684 whole entry): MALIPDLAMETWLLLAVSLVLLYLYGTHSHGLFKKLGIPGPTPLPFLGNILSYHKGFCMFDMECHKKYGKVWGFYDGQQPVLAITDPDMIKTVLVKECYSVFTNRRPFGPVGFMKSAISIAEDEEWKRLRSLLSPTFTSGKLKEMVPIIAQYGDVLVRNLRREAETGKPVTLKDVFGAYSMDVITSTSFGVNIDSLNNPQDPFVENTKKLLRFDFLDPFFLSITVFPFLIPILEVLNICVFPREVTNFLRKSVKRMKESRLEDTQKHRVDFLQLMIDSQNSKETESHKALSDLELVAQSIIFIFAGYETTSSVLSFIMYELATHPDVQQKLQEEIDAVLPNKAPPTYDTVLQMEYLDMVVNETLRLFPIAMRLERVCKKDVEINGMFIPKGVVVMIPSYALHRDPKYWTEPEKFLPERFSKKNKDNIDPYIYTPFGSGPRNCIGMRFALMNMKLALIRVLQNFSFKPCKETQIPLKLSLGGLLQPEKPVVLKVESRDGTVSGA
Cytochrome P450 2C9, sequence (P11712 whole entry): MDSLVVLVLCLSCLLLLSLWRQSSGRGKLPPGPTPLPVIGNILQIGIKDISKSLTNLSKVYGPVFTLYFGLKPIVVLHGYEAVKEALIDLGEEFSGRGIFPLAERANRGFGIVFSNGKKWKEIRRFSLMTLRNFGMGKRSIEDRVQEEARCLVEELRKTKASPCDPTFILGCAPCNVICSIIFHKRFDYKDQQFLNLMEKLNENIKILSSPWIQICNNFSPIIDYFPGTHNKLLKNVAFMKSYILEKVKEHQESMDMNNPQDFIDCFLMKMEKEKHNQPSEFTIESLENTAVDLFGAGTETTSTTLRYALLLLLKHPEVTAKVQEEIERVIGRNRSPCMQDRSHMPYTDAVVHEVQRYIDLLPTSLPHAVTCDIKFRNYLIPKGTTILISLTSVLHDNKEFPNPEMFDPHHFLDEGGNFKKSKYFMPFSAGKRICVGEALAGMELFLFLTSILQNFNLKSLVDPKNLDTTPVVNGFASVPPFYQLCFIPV
Cytochrome P450 2C19, sequence (P33261 whole entry): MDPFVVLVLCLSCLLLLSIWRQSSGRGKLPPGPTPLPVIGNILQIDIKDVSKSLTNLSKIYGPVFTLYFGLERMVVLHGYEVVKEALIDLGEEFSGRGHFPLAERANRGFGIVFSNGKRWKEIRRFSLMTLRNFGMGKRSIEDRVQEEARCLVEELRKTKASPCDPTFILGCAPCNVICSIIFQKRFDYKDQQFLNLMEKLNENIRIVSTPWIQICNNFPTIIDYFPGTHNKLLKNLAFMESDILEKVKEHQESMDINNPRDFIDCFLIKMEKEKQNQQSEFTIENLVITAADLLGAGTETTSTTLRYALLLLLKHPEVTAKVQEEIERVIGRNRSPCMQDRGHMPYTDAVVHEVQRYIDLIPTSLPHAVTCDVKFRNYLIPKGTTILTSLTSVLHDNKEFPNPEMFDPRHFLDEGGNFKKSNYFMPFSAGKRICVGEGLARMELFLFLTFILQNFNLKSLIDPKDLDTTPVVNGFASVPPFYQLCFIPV

## Cc1ccc(NC(=O)CSc2nnc(N)s2)cc1S(=O)(=O)N1CCOCC1
[1]
  EC50: > 300 µM (not active)
[2]
  EC50: > 300 µM (not active)

## O=C(c1ccco1)N1CCN(c2ncnc3c(-c4ccccc4)nsc23)CC1
[3]
  EC50: 9.83 µM (active)
[4]
  EC50: 108 µM (active)

## CN(Cc1ccccc1)C(=O)c1nc2ccccn2c1CN1CCCC1c1nccs1 (stereo not drawn)
[5]
  AC50: > 260 µM (inactive)

## O=C(O)C1OC(Oc2cc3oc(-c4ccccc4)cc(=O)c3c(O)c2O)C(O)C(O)C1O (stereo not drawn)
[1]
  EC50: 27.2 µM (active)
[2]
  EC50: 11.9 µM (active)

## COc1cc(C(c2c(C)[nH][nH]c2=O)c2c(C)[nH][nH]c2=O)cc([N+](=O)[O-])c1O
[6]
  EC50: 0.248 µM (active)
[1]
  EC50: 7.63 µM (active)
[2]
  EC50: 4.74 µM (active)
[7]
  AC50: 0.42 µM (active)

## Cc1cccc(N2CC(C(=O)OCC(=O)c3ccc(OC(=O)c4cccs4)cc3)CC2=O)c1C (stereo not drawn)
[6]
  EC50: 25 µM (active)
[7]
  AC50: 97.7 µM (active)

## CCn1c(SCC(=O)N2CCN(S(=O)(=O)c3ccccc3)CC2)nnc1-c1cccs1
[8]
  AC50: 17.8 µM (inconclusive)
[9]
  AC50: 22.4 µM (inconclusive)

## O=S(=O)(O)c1cccc2cccc(Nc3ccccc3)c12
[10]
  IC50: > 100 µM (active)

## O=C(CN1C(=O)/C(=C/c2ccccc2)SC1=S)NNC(=O)c1ccccc1O
[3]
  EC50: > 38 µM (not active)
[4]
  EC50: > 160 µM (inconclusive)

## O=C(NNc1ccc(Cl)cc1)C1CCC1
[3]
  EC50: > 38 µM (not active)
[4]
  EC50: 48.3 µM (active)

## CN1CCN(c2nc(-c3ccccc3C(F)(F)F)nc3ccccc23)CC1
[11]
  AC50: 20 µM (inconclusive)
[8]
  AC50: 39.8 µM (inconclusive)

## O[C@@H](C1=C/C(=C\c2ccncc2)c2ccccc21)c1ccncc1
[8]
  AC50: 1.58 µM (inconclusive)

## CCOC(=O)c1nc(C)n(-c2ccc(Cl)cc2)n1
[6]
  EC50: > 380 µM (inactive)
[7]
  AC50: > 380 µM (inactive)

## Cc1noc(C)c1C(=O)OCC(=O)NC(c1ccccc1)c1ccccc1
[8]
  AC50: 3.16 µM (inconclusive)

## COC(=O)N/N=C/c1ccc(-c2cc(Cl)cc(Cl)c2)o1
[12]
  CC50: > 50 µM (active)
[3]
  EC50: 5.04 µM (active)
[4]
  EC50: > 150 µM (inactive)

## CC1=NN(c2ccc(Cl)cc2)C(=O)C1
[6]
  EC50: 2.67 µM (active)
[7]
  AC50: 2.74 µM (active)

## COc1ccc(-n2cc(CNCc3cnc4ccccn34)c(-c3cccc(F)c3)n2)cc1
[1]
  EC50: > 300 µM (not active)
[2]
  EC50: > 300 µM (inconclusive)

## O=C1/C(=C/c2cccc(F)c2)SC(=S)N1NS(=O)(=O)c1ccccc1
[10]
  IC50: 30.6 µM (active)

## CCOC(=O)c1ccc(NC(=O)NCc2cccnc2)cc1
[5]
  AC50: 2.09 µM (active)

## CCOC(=O)C1CCN(C(=O)CCC(=O)NNc2nc3ccccc3c3nc(C)nn23)CC1
[1]
  EC50: 53.9 µM (active)
[2]
  EC50: 1.41 µM (active)

## COc1ccccc1CN1CCCC2(CCN(C(=O)c3c(C)noc3C)CC2)C1
[11]
  AC50: 10 µM (inconclusive)
[8]
  AC50: 12.6 µM (inconclusive)

## O=C(NCc1ccccc1Cl)c1ccc2c(=O)n(CCCN3CCCC3=O)c(=S)[nH]c2c1
[11]
  AC50: 15.8 µM (inconclusive)
[8]
  AC50: 22.4 µM (inconclusive)

## CCc1ccc(C2C(C#N)=C(N)Oc3[nH]nc(CC(=O)OC)c32)cc1 (stereo not drawn)
[6]
  EC50: 8.36 µM (active)
[7]
  AC50: 13.8 µM (active)

## COc1ccc(N2C(=O)CC(N(CCc3ccccc3)C(=O)/C=C/C(=O)O)C2=O)cc1 (stereo not drawn)
[6]
  EC50: > 380 µM (inactive)
[7]
  AC50: > 380 µM (inactive)

## COc1ccc(/C=N/NC(=O)c2ccc(N(C)S(=O)(=O)c3ccccc3)cc2)cc1
[1]
  EC50: > 300 µM (not active)
[2]
  EC50: > 300 µM (not active)

## O=C(c1ccco1)N1CCC[C@@]2(CCN(c3ccccc3)C2)C1
[8]
  AC50: 20 µM (inconclusive)

## N=c1c(S(=O)(=O)c2ccc(Br)cc2)cc2c(=O)n3ccccc3nc2n1C1CCCCC1
[1]
  EC50: 9.42 µM (inconclusive)
[2]
  EC50: 8.8 µM (active)

## CC1(OC(=O)c2cccs2)C(=O)C=C2C=C3CCCN3C=C2C1=O (stereo not drawn)
[1]
  EC50: > 300 µM (not active)
[2]
  EC50: 35.4 µM (active)

## Cc1cc(C2C(C#N)=C(N)Oc3[nH]nc(C)c32)c(C)s1 (stereo not drawn)
[11]
  AC50: 7.08 µM (inconclusive)
[6]
  EC50: 3.32 µM (active)
[13]
  AC50: 10 µM (inconclusive)
[7]
  AC50: 10.9 µM (active)

## O=C1NN(c2ccc(Cl)c(Cl)c2)C(=O)/C1=C/c1ccc(-c2ccccc2C(=O)O)o1
[10]
  IC50: 7.41 µM (active)
[4]
  EC50: > 160 µM (inactive)
[14]
  AC50: 0.26 µM (active)

## CCc1ccc(N(C(=O)c2ccoc2C)C(C(=O)NC2CCCC2)c2ccc(OC)cc2)cc1 (stereo not drawn)
[11]
  AC50: 1.26 µM (inconclusive)
[8]
  AC50: 15.8 µM (inconclusive)

## CC1(C)CC(=O)C2=C(C1)OC(N)=C(C#N)C2c1cccc(OC(=O)c2ccco2)c1 (stereo not drawn)
[1]
  EC50: > 300 µM (not active)
[2]
  EC50: > 300 µM (not active)
